US11208432B2, “Inhibitors of glucocorticoid receptor” (ORIC Pharmaceuticals, Inc., priority 2015, dated 2021)

system: AR; assay: In Vitro AR Agonism Assay (LNAR reporter cell line); assay type: cell-based; details: LNAR reporter cells, RPMI + 10% CSS, 18-24 hrs; maximum response of Mifepristone set to 1
Procedure: In Vitro AR Agonism Assay
The AR agonism assay was done in the LNAR reporter cell line which has overexpressed AR and 4×ARE-Luc genes. This cell line is sensitive to even minor partial AR agonism activity in hormone-deprived media (CSS). The assays were done in RPMI (without phenol red)+10% CSS using 6000 LNAR cells/well in 384-well plates and compounds were incubated with cells in […] incubator for 18-24 hrs. OneGlo reagent (25 uL/well) was added and plates were read with luminometer within 3 minutes.
To gauge the AR partial agonism activity, Mifepristone is included as a standard in the assay. AR agonism assay results are quantified by determining the ratio of the maximum response of individual compounds to the maximum response of Mifepristone (arbitrarily set to 1). Values of Table 4 are reported as Relative Maximum Response to Mifepristone. This general trend of AR agonism was shown for the class of compounds described herein.

Row | SMILES | Relative Maximum Response to Mifepristone
1 | COC(C)(C)C#C[C@]1(O)CC[C@H]2[C@@H]3CCC4=CC(=O)CC[C@@H]4[C@H]3[C@@H](c3ccc(N(C)C)cc3)C[C@@]21C [Compound 10, (8R,9S,10R,11S,13S,14S,17S)-11-(4-(Dimethylamino)phenyl)-17-hydroxy-17-(3-methoxy-3-methylbut-1-yn-1-yl)-13-methyl-1,2,6,7,8,9,10,11,12,13,14,15,16,17-tetradecahydro-3H-cyclopenta[a]phenanthren-3-one] | A (A: ≤0.4)
2 | CC#C[C@]1(O)CC[C@H]2[C@@H]3CCC4=CC(=O)CC[C@@H]4[C@H]3[C@@H](c3ccc(N(C)C)cc3)C[C@@]21C [Compound 3] | B (B: >0.4)
3 | COc1ccc([C@H]2C[C@@]3(C)[C@@H](CC[C@@]3(O)C#CC3CC3)[C@@H]3CCC4=CC(=O)CC[C@]4(C)C23)cc1 (stereo partly drawn) [Compound 6] | A (A: ≤0.4)
4 | CC(C)C#C[C@]1(O)CC[C@H]2[C@@H]3CCC4=CC(=O)CC[C@]4(C)C3[C@@H](c3ccc(N(C)C)cc3)C[C@@]21C (stereo partly drawn) [Compound 13, (8S,10R,11S,13S,14S,17S)-11-(4-(Dimethylamino)phenyl)-17-hydroxy-10,13-dimethyl-17-(3-methylbut-1-yn-1-yl)-1,2,6,7,8,9,10,11,12,13,14,15,16,17-tetradecahydro-3H-cyclopenta[a]phenanthren-3-one] | A (A: ≤0.4)
5 | CN(C)c1ccc([C@H]2C[C@@]3(C)[C@@H](CC[C@@]3(O)C#CC(C)(C)C)[C@@H]3CCC4=CC(=O)CC[C@@H]4[C@H]32)cc1 [Compound 7, (8R,9S,10R,11S,13S,14S,17S)-11-(4-(dimethylamino)phenyl)-17-(3,3-dimethylbut-1-yn-1-yl)-17-hydroxy-13-methyl-1,2,6,7,8,9,10,11,12,13,14,15,16,17-tetradecahydro-3H-cyclopenta[a]phenanthren-3-one] | A (A: ≤0.4)

same assay, conditions: in concentrations as low as 10 nM

Row | SMILES | partial AR agonism
6 | CC#C[C@]1(O)CC[C@H]2[C@@H]3CCC4=CC(=O)CCC4=C3[C@@H](c3ccc(N(C)C)cc3)C[C@@]21C [Mifepristone, reference compound] | strong partial AR agonism
